Legend:
[1] = system: Botryotinia fuckeliana (Botrytis cinerea); assay: Botryotinia fuckeliana (Botrytis cinerea) / liquid culture (gray mould); type: cell-based; details: 20 ppm; compared to untreated control; inhibition of growth determined photometrically 3-4 days after application, 24° C.
Description: Botryotinia fuckeliana (Botrytis cinerea)/Liquid Culture (Gray Mould)
(§1) Conidia of the fungus from cryogenic storage are directly mixed into nutrient broth (Vogels broth). After placing a (DMSO) solution of test compound into a microtiter plate (96-well format), the nutrient broth containing the fungal spores is added. The test plates are incubated at 24° C. and the inhibition of growth is determined photometrically 3-4 days after application.

[2] = system: Glomerella lagenarium (Colletotrichum lagenarium); assay: Glomerella lagenarium (Colletotrichum lagenarium) / liquid culture (anthracnose); type: cell-based; details: 20 ppm; compared to untreated control; inhibition of growth measured photometrically 3-4 days after application, 24° C.
Description: Glomerella Lagenarium (Colletotrichum lagenarium)/Liquid Culture (Anthracnose)
as §1, with “(PDB potato dextrose” for “(Vogels”, “measured” for “determined”

Fusarium culmorum = type: cell-based; details: 20 ppm; compared to untreated control; inhibition of growth determined photometrically 3-4 days after application, 24° C.
Gaeumannomyces graminis = Gaeumannomyces graminis / liquid culture (take-all of cereals); type: cell-based; details: 20 ppm; compared to untreated control; inhibition of growth determined photometrically 4-5 days after application, 24° C.
Description: Gaeumannomyces graminis/Liquid Culture (Take-all of Cereals)
as §1, with “Mycelial fragments of” for “Conidia of”, “storage were” for “storage are”, “broth (PDB potato dextrose” for “broth (Vogels”, “spores iss” for “spores is”, “photometrically 4-5” for “photometrically 3-4”

[3] = system: Monographella nivalis (Microdochium nivale); assay: Monographella nivalis (Microdochium nivale) / liquid culture (foot rot cereals); type: cell-based; details: 20 ppm; compared to untreated control; inhibition of growth determined photometrically 4-5 days after application, 24° C.
Description: Monographella nivalis (Microdochium nivale)/Liquid Culture (Foot Rot Cereals)
as §1, with “(PDB potato dextrose” for “(Vogels”, “4-5” for “3-4”

[4] = system: Magnaporthe grisea (Pyricularia oryzae); type: cell-based; details: 20 ppm; compared to untreated control; inhibition of growth determined photometrically 3-4 days after application, 24° C.

## CC(C)CC(C)(Cc1ccc(Cl)s1)C(=O)Nc1cnc2c(F)cccc2c1 (stereo not shown) [Compound E1, 2-[(5-chloro-2-thienyl)methyl]-N-(8-fluoro-3-quinolyl)-2,4-dimethyl-pentanamide]
[1]
  control of Botryotinia fuckeliana: at least 80%
[2]
  control of Glomerella lagenarium: at least 80%
Fusarium culmorum
  control of Fusarium culmorum: at least 80%
Gaeumannomyces graminis
  control of Gaeumannomyces graminis: at least 80%
[3]
  control of Monographella nivalis: at least 80%
[4]
  control of Magnaporthe grisea: at least 80%
other
  melting point: 142 to 145 °C

Reference: US11584740B2 (priority 2017, dated 2023)
